In article PMC10262918, “Stapled peptide PROTAC induced significantly greater anti-PD-L1 effects than inhibitor in human cervical cancer cells” (Frontiers in Immunology, 2023) one finds IC50 data, which are given here for 1 compound.

This experiment deals with PD-L1 in C33A cells. Put plainly: Western blotting of PD-L1 level in C33A cells. Type of experiment: cell-based, human. Conditions: 4 h treatment, mean of 3 independent experiments, read-out: IC50 of PD-L1 decrease. The protocol: C33A and HeLa cells were plated in 6-well plates and treated with the stapled peptide at the indicated concentrations for the specified time, followed by lysis in RIPA buffer containing protease inhibitor. Protein samples were prepared using a BCA Protein Assay Kit (Beyotime). A total of 50 µg of protein were added per lane, separated by 10% SDS-PAGE, and subsequently transferred onto polyvinylidene fluoride (PVDF) membrane. The membrane was blocked with 5% skimmed milk for 2 h at room temperature. Primary antibodies including anti-PD-L1 (Abcam, ab213524) and anti-GAPDH (Abcam, ab9485) antibodies were diluted in primary antibody dilution buffer (Biosharp) and incubated with PVDF membrane at 4°C overnight. Next, the membrane was incubated with goat anti-mouse/anti-rabbit secondary antibodies (Proteintech, SA00001-1, SA00001-2) at room temperature for 1 h. After washing with TBST thrice for 5 min each, the proteins were detected using enhanced chemiluminescence (ECL) reagents (Vazyme) and a ChemiDoc XRS imaging system (Bio-Rad Laboratories).
(In general: A western blot detects proteins with antibodies after separation by electrophoresis.)

In general, IC50 refers to the midpoint of a concentration-inhibition curve. Consider `Cc1c(COc2ccc(CN3CCCCC3C(=O)O)cc2Br)cccc1-c1ccccc1` (stereo not shown) [BMS-8], for which the IC50 is 7.79 µM.
